Test results published in ChEMBL document CHEMBL1141746, “Three new diterpenes from the marine soft coral Lobophytum crassum” (1998).
Activity calls are given as the source filed them. The calls are words filed in the database; no cut-off is given here.

Experiments:
[1] = target: Human immunodeficiency virus type 1 reverse transcriptase (Human immunodeficiency virus 1) (UniProt Q72547); experiment: Inhibition of HIV1 reverse transcriptase by ELISA
[2] = tested on: Microbotryum violaceum; experiment: Antimicrobial activity against Ustilago violacea at 50 ug by agar plate diffusion assay; assay type: functional; conditions: read-out: IZ
[3] = target: Tyrosine-protein kinase Lck (Homo sapiens) (UniProt P06239); experiment: Inhibition of tyrosine kinase lckp56 by ELISA
Chain of Tyrosine-protein kinase Lck (Homo sapiens) (P06239 2-509 limits assumed): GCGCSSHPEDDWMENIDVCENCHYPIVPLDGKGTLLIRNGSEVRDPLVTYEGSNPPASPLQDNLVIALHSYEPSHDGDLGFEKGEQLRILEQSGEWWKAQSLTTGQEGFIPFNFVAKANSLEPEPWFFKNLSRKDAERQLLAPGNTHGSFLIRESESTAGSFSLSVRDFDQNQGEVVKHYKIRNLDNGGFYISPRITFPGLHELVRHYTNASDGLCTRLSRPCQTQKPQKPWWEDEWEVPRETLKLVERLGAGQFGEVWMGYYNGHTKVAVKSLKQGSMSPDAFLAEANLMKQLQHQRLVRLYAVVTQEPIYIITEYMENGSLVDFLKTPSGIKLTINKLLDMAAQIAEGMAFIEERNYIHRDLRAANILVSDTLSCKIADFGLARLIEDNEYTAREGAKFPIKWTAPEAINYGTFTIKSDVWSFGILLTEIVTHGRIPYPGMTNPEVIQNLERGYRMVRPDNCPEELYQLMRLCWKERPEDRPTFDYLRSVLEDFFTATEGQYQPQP

[4] = tested on: [Chlorella] fusca; experiment: Antimicrobial activity against Chlorella fusca at 50 ug by agar plate diffusion assay; assay type: functional; conditions: Scenedesmus fuscus; read-out: IZ

Row | Activity [1] | Activity [3] | Compound | zone of inhibition at 50 µg/disc [2] [mm] | zone of inhibition at 50 µg/disc [4] [mm]
1 | inactive | inactive | COC(=O)C(C)/C1=C/C=C(\C)CC[C@H]2O[C@]2(C)CC/C=C(\C)CC1 (some centres not stated) | 1 | –
2 | inactive | inactive | CC1=C2CC/C(C)=C/CC[C@@]3(C)O[C@H]3CC/C(C)=C/[C@@H]2OC1 | 3 | 3
